For 18 molecules, MIC99, IC50 and Activity results are on record in ChEMBL document CHEMBL1147745, “Targeting FtsZ for antituberculosis drug discovery: noncytotoxic taxanes as novel antituberculosis agents” (J Med Chem, 2006).

The test system of assay [1] is Mycobacterium tuberculosis. The experiment in a line: Antimicrobial activity against Mycobacterium tuberculosis IMCJ946.K2. It is filed as functional.
In a further assay the test system is A549. The experiment in a line: Cytotoxicity against human A549 cell line. Format: functional, cell-based.
For the next assay, the system named is MCF7. The experiment in a line: Cytotoxicity against human MCF7 cell line. Format: functional, cell-based.
Assay [2] has as its system Mycobacterium tuberculosis. The assay can be described thus: Antimicrobial activity against Mycobacterium tuberculosis H37Rv. Format: functional.
Assay [3] has as its target T1, Cell division protein FtsZ (Mycobacterium tuberculosis) (UniProt P9WN95).
T1 sequence (whole entry): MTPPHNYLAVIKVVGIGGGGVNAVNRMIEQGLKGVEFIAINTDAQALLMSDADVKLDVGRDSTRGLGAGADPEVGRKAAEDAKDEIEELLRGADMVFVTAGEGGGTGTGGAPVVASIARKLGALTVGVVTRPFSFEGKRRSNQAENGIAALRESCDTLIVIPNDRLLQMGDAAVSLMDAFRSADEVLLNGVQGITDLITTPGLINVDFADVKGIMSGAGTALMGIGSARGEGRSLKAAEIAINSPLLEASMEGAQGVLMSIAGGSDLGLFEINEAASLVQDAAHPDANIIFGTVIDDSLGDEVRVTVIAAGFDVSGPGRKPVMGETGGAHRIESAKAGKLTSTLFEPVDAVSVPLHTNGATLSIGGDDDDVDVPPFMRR
The experiment in a line: FtsZ inactivation in MTB cells at MIC. It is filed as cell-based.

In brackets after ≈: the same amount, converted by molar mass. Activity calls are given as the source filed them. No cut-off for these calls is given here. A value given as a limit tells only on which side of the number the result lay.

Consider `CCCCCC(=O)O[C@H]1C(=O)[C@@]2(C)[C@H]([C@H](OC(=O)c3ccccc3)[C@]3(O)C[C@H](OC(=O)[C@H](O)[C@@H](NC(=O)c4ccccc4)c4ccccc4)C(C)=C1C3(C)C)[C@]1(OC(C)=O)CO[C@@H]1C[C@@H]2O`, for which the MIC99 in assay [1] was determined as 1.25 µM (≈ 1.14 µg/mL); in assay [2], 5 µM (≈ 4.55 µg/mL). Moreover, the concentration for half-maximal inhibition (IC50) in the assay with A549 and with MCF7 was 0.65 µM throughout.
For `CC(=O)O[C@@]12CO[C@@H]1C[C@H](O)[C@@]1(C)C(=O)[C@H](O)C3=C(C)[C@@H](OC(=O)/C=C/c4ccc(Sc5ccccc5)cc4)C[C@@](O)([C@@H](OC(=O)c4ccccc4)[C@H]21)C3(C)C`, the MIC99 in assay [1] and in assay [2] was 2.5 µM (≈ 1.96 µg/mL) each time. Also, the IC50 in the assay with A549 was 4.5 µM; in the assay on MCF7 it was 3.4 µM.
On to `CC(=O)O[C@@]12CO[C@@H]1C[C@H](O)[C@@]1(C)C(=O)[C@H](OC(=O)CN(C)C)C3=C(C)[C@@H](OC(=O)/C=C/c4ccc5ccccc5c4)C[C@@](O)([C@@H](OC(=O)c4ccccc4)[C@H]21)C3(C)C`, for which the MIC99 in assay [1] and in assay [2] was 10 µM (≈ 8.1 µg/mL) in each case. Besides, the IC50 in the assay on A549 was 10.8 µM; in the assay on MCF7 it was 7 µM.
Regarding `CC(=O)O[C@@]12CO[C@@H]1C[C@H](O)[C@@]1(C)C(=O)[C@H](O)C3=C(C)[C@@H](OC(=O)/C=C/c4ccc(Oc5ccccc5)cc4)C[C@@](O)([C@@H](OC(=O)c4ccccc4)[C@H]21)C3(C)C`, the MIC99 in assay [1] and in assay [2] was 10 µM (≈ 7.67 µg/mL) each time. The IC50 with A549 stood at 12.5 µM; with MCF7, 9.3 µM.
Consider `CC(=O)O[C@@]1([C@@H]2/C(C)=C(/O)C(=O)C3=C(C)[C@@H](OC(=O)/C=C/c4ccc(Sc5ccccc5)cc4)C[C@@](O)([C@H]2OC(=O)c2ccccc2)C3(C)C)CO[C@@H]1CCO`, for which the MIC99 in assay [1] came out at 1.25 µM (≈ 0.979 µg/mL); in assay [2] it was 2.5 µM (≈ 1.96 µg/mL). The IC50 with A549 and with MCF7 was > 80 µM throughout.
As to `CCN(CC)CCC(=O)O[C@H]1C(=O)[C@@]2(C)[C@H]([C@H](OC(=O)c3ccccc3)[C@]3(O)C[C@H](OC(=O)/C=C/c4ccc5ccccc5c4)C(C)=C1C3(C)C)[C@]1(OC(C)=O)CO[C@@H]1C[C@@H]2O`, the MIC99 amounted to 5 µM (≈ 4.26 µg/mL) in assay [1] and 10 µM (≈ 8.52 µg/mL) in assay [2]. The half-maximal inhibitory concentration (IC50) in the assay on A549 turned out to be 9.6 µM; in the assay on MCF7, 3.9 µM.
For the molecule `COc1ccc(C(=O)O[C@H]2[C@@H]3[C@]4(OC(C)=O)CO[C@@H]4C[C@H](O)[C@@]3(C)C(=O)[C@H](O)C3=C(C)[C@@H](OC(=O)/C=C/c4ccc5ccccc5c4)C[C@]2(O)C3(C)C)cc1`, the figures for the MIC99 in assay [1] and in assay [2] were 2.5 µM (≈ 1.89 µg/mL) and 5 µM (≈ 3.77 µg/mL), respectively. Further, the results for the IC50 in the assay with A549 and with MCF7 were 14 µM and 7.6 µM, respectively.
On to `CCN(CC)CCC(=O)O[C@H]1C[C@H]2OC[C@@]2(OC(C)=O)[C@H]2[C@H](OC(=O)c3ccccc3)[C@]3(O)C[C@H](OC(=O)/C=C/c4ccc5ccccc5c4)C(C)=C([C@@H](OC(C)=O)C(=O)[C@]12C)C3(C)C`, for which the MIC99 in assay [1] was found to be 20 µM (≈ 17.9 µg/mL); in assay [2], 10 µM (≈ 8.94 µg/mL). In addition, the values for the IC50 with A549 and in the assay with MCF7 were 17 µM and 9.4 µM, respectively.
As to `CC(=O)O[C@@]12CO[C@@H]1C[C@H](O)[C@@]1(C)C(=O)[C@H](OC(=O)/C=C/c3ccc4ccccc4c3)C3=C(C)[C@@H](O)C[C@@](O)([C@@H](OC(=O)c4ccccc4)[C@H]21)C3(C)C`, the MIC99 stood at 10 µM (≈ 7.25 µg/mL) in assay [1] and 20 µM (≈ 14.5 µg/mL) in assay [2]. The molecule also returned an IC50 in the assay with MCF7 of 14 µM.
Turning to `CC(=O)O[C@@]12CO[C@@H]1C[C@H](O)[C@@]1(C)C(=O)[C@H](O)C3=C(C)[C@@H](OC(=O)/C=C/c4cccc5ccccc45)C[C@@](O)([C@@H](OC(=O)c4ccccc4)[C@H]21)C3(C)C`, the MIC99 in assay [1] and in assay [2] was 5 µM (≈ 3.62 µg/mL) throughout. The half-inhibitory concentration (IC50) with A549 stood at 80 µM; in the assay with MCF7, 5.4 µM.
On to `CC(=O)O[C@@]12CO[C@@H]1C[C@H](O)[C@@]1(C)C(=O)[C@H](O)C3=C(C)[C@@H](OC(=O)/C=C/c4ccc5ccccc5c4)C[C@@](O)([C@@H](OC(=O)c4ccccc4)[C@H]21)C3(C)C`, for which the MIC99 in assay [1] is 2.5 µM (≈ 1.81 µg/mL); in assay [2], 5 µM (≈ 3.62 µg/mL). For the same molecule, the IC50 worked out at 15.7 µM with A549 and 4.5 µM in the assay with MCF7.
For `CC(=O)O[C@@]12CO[C@@H]1C[C@H](OC(=O)CN(C)C)[C@@]1(C)C(=O)[C@H](O)C3=C(C)[C@@H](OC(=O)/C=C/c4ccc5ccccc5c4)C[C@@](O)([C@@H](OC(=O)c4ccccc4)[C@H]21)C3(C)C` the same measures were 5 µM (≈ 4.05 µg/mL), 20 µM (≈ 16.2 µg/mL), 4.3 µM and > 20 µM.
`CC(=O)O[C@@]1([C@@H]2/C(C)=C(/O)C(=O)C3=C(C)[C@@H](OC(=O)/C=C/c4ccc5ccccc5c4)C[C@@](O)([C@H]2OC(=O)c2ccccc2)C3(C)C)CO[C@@H]1CCO`: the MIC99 in assay [1] turned out to be 1.25 µM (≈ 0.906 µg/mL); in assay [2], 2.5 µM (≈ 1.81 µg/mL). Also, the IC50 in the assay with A549 and in the assay with MCF7 was > 80 µM throughout. For the same molecule, the outcome in assay [3] was Active.
With `COc1ccc2cc(/C=C/C(=O)O[C@H]3C[C@@]4(O)[C@@H](OC(=O)c5ccccc5)[C@@H]5[C@]6(OC(C)=O)CO[C@@H]6C[C@H](O)[C@@]5(C)C(=O)[C@H](O)C(=C3C)C4(C)C)ccc2c1`, the MIC99 in assay [1] and in assay [2] was 5 µM (≈ 3.77 µg/mL) throughout. Further, the IC50 with A549 was 5 µM; in the assay with MCF7 it was 5.3 µM.
As to `CC(=O)O[C@@]1([C@@H]2/C(C)=C(/O)C(=O)C3=C(C)[C@@H](OC(=O)/C=C/c4ccc(Oc5ccccc5)cc4)C[C@@](O)([C@H]2OC(=O)c2ccccc2)C3(C)C)CO[C@@H]1CCO`, the MIC99 amounted to 1.25 µM (≈ 0.959 µg/mL) in assay [1] and 2.5 µM (≈ 1.92 µg/mL) in assay [2]. For the same molecule, the IC50 in the assay with A549 and with MCF7 was > 80 µM each time.
Turning to `COc1ccc2cc(/C=C/C(=O)O[C@H]3C[C@@]4(O)[C@@H](OC(=O)c5ccccc5)[C@H]([C@]5(OC(C)=O)CO[C@@H]5CCO)/C(C)=C(/O)C(=O)C(=C3C)C4(C)C)ccc2c1`, the MIC99 in assay [1] and in assay [2] was 2.5 µM (≈ 1.89 µg/mL) each time. Moreover, the IC50 with A549 and in the assay on MCF7 was > 80 µM each time.
For `CC(=O)O[C@H]1C(=O)[C@@]2(C)[C@H]([C@H](OC(=O)c3ccccc3)[C@]3(O)C[C@H](OC(=O)[C@H](O)[C@@H](NC(=O)c4ccccc4)c4ccccc4)C(C)=C1C3(C)C)[C@]1(OC(C)=O)CO[C@@H]1C[C@@H]2O` [PACLITAXEL], the MIC99 in assay [1] and in assay [2] was 40 µM (≈ 34.2 µg/mL) each time. In addition, the values for the IC50 in the assay on A549 and in the assay on MCF7 were 0.028 µM and 0.019 µM, respectively.
Take `CC(=O)O[C@@]12CO[C@@H]1C[C@H](O)[C@@]1(C)C(=O)[C@H](OC(=O)N(C)C)C3=C(C)[C@@H](OC(=O)/C=C/c4ccc5ccccc5c4)C[C@@](O)([C@@H](OC(=O)c4ccccc4)[C@H]21)C3(C)C`: in assay [3], the result was Active.
